For six molecules, IC50, inhibition and EC50 results are on record in ChEMBL document CHEMBL4385595, “Advancement of multi-target drug discoveries and promising applications in the field of Alzheimer's disease” (Eur J Med Chem, 2019).

The structures appear in SMILES notation.

For one assay, the target named is Beta-secretase 1 (Homo sapiens, UniProt P56817). The assay is described as follows: Inhibition of human recombinant BACE-1 using 19F peptide as substrate measured after 5 hrs by fluorescence method.
Beta-secretase 1, sequence (P56817 whole entry): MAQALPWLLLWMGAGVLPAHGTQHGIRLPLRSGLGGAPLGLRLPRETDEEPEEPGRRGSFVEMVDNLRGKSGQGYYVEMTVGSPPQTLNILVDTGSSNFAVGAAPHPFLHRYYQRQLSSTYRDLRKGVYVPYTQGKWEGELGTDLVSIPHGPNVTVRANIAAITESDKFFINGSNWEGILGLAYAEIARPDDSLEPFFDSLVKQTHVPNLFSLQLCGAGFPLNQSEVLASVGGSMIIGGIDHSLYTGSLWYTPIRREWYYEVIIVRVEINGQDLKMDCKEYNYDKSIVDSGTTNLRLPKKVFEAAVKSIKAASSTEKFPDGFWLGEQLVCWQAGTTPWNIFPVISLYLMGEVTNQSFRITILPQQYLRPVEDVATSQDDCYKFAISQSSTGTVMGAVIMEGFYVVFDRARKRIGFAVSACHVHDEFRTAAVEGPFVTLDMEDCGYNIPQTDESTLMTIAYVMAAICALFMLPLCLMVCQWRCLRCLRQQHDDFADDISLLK
Assay [1] deals with Glycogen synthase kinase-3 beta (Homo sapiens, UniProt P49841). The assay is described as follows: Inhibition of human recombinant GSK-3beta using 19F peptide as substrate measured after 1.5 hrs by fluorescence method.
Glycogen synthase kinase-3 beta, sequence (P49841 whole entry): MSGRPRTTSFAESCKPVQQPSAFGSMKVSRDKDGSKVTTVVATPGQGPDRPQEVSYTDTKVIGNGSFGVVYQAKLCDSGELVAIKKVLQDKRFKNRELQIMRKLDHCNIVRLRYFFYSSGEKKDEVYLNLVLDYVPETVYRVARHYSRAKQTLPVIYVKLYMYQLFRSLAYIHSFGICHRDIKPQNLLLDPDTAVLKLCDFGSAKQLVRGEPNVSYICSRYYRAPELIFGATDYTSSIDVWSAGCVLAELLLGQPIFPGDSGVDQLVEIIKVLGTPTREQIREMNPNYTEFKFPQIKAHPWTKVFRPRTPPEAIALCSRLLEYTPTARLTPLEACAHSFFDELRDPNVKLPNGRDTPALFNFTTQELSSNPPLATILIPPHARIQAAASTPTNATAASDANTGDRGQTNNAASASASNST
For assay [2], the target named is Amyloid-beta precursor protein (Homo sapiens) (UniProt P05067). The assay is described as follows: Inhibition of self-induced amyloid beta (1 to 42) (unknown origin) aggregation at 20 uM.
Amyloid-beta precursor protein (Homo sapiens), sequence (P05067 whole entry): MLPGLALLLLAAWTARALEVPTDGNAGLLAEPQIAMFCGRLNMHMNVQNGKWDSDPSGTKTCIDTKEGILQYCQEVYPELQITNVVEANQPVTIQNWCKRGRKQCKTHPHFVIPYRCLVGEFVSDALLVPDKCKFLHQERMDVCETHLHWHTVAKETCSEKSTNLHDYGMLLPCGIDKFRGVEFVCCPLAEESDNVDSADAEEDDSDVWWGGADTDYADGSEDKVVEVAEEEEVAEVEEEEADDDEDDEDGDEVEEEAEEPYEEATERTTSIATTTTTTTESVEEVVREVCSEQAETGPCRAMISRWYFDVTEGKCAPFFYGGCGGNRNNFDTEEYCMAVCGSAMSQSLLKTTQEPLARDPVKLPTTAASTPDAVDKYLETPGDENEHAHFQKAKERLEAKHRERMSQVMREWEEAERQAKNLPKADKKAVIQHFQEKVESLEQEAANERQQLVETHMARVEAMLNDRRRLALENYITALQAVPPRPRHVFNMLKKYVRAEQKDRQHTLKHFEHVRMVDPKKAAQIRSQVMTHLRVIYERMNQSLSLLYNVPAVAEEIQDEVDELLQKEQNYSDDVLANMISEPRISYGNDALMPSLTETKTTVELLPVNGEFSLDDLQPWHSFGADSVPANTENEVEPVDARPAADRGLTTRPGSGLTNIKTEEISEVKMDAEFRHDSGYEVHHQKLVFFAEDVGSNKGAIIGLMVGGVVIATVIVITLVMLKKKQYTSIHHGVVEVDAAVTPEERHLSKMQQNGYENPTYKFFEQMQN
Assay [3] deals with T1, Cholinesterase (Homo sapiens, UniProt P06276). The assay can be described thus: Inhibition of human BuChE.
T1 sequence (P06276 whole entry): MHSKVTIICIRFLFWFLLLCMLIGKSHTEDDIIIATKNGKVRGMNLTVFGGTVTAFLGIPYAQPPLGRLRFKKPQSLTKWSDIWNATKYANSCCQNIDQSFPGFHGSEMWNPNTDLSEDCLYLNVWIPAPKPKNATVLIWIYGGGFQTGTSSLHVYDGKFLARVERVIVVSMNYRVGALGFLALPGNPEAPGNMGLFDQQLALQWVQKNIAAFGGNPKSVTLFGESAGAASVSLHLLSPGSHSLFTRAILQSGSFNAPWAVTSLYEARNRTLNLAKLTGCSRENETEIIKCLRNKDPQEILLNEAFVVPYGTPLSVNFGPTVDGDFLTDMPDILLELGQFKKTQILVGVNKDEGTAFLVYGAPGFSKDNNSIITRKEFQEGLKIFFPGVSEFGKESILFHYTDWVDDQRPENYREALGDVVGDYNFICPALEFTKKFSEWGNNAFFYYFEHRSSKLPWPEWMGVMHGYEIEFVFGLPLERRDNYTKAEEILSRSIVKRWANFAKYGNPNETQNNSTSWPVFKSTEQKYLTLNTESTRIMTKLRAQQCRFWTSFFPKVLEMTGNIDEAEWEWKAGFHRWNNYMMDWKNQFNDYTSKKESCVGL
The target in assay [4] is Microtubule-associated protein tau (Homo sapiens) (UniProt P10636). The assay is described as follows: Inhibition of tau aggregation (unknown origin) at 20 uM.
Microtubule-associated protein tau (Homo sapiens), sequence (P10636 whole entry): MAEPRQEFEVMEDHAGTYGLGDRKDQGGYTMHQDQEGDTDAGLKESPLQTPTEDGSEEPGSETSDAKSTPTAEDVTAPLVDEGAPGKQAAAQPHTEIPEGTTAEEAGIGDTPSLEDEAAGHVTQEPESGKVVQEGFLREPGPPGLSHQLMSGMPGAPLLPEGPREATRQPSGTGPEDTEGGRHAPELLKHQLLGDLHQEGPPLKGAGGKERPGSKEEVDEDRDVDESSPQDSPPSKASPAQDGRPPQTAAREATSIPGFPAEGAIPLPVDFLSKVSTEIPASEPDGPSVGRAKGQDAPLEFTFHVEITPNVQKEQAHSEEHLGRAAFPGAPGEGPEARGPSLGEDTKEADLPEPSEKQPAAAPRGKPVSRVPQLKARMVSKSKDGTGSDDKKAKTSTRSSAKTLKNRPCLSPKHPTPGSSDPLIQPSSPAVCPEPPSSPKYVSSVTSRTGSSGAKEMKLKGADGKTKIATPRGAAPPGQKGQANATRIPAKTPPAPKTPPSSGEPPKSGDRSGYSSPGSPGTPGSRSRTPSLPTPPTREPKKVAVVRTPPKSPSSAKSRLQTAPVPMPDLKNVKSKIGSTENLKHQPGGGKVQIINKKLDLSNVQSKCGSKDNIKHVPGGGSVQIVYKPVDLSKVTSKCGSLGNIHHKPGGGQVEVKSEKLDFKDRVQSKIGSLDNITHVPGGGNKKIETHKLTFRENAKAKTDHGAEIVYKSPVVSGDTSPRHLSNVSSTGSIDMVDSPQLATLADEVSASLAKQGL
For the next assay, the target named is Acetylcholinesterase (Homo sapiens, UniProt P22303). The assay is described as follows: Inhibition of human AChE.
Acetylcholinesterase, sequence (P22303 whole entry): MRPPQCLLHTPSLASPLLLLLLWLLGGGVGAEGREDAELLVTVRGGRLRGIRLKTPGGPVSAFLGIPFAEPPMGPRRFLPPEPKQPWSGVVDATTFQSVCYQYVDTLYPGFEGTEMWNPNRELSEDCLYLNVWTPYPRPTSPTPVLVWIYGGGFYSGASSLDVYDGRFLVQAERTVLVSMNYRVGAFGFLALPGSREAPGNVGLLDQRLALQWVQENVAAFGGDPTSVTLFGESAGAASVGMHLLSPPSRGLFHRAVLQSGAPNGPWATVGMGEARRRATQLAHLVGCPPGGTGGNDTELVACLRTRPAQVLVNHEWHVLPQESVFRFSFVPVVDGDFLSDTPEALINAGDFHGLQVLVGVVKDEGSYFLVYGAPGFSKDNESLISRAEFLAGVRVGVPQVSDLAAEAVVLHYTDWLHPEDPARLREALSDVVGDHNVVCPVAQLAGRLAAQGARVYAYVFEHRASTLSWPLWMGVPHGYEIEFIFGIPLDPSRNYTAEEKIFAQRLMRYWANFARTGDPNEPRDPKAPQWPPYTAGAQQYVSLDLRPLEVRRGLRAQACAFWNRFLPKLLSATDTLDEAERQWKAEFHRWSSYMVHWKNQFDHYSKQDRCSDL
For the next assay, the system named is Mus musculus. The assay is described as follows: In-vivo inhibition of NMDA receptor in mouse assessed as reduction in NMDA-induced convulsions administered intraperitoneally 40 mins before NMDA injection. The assay is classed as functional, organism-based.
Assay [5] is described as follows: Inhibition of calcium channel in rat ileum intestine assessed as reduction in Ca-induced contraction. The assay is classed as tissue-based.
In assay [6] the target is T1, Cholinesterase. The assay is described as follows: Inhibition of BuChE (unknown origin) assessed as decrease in thiocholine accumulation by spectrophotometry.
A further assay has as its system SK-N-SH. The assay is described as follows: Inhibition of apoptosis in human SK-N-SH cells assessed as […] in cleaved caspase-3 by Western blot analysis. The assay is classed as functional, cell-based. Background: A western blot detects proteins with antibodies after separation by electrophoresis.
Assay [7] concerns the target T1, Cholinesterase. The assay is described as follows: Inhibition of BChE (unknown origin).
Assay [8] addresses Glutamate [NMDA] receptor. The assay is described as follows: Inhibition of NMDA receptor (unknown origin). Type of assay: protein-complex assay, Homo sapiens.

With `O=c1[nH]c(=O)c2cc[nH]c2[nH]1` [7-DEAZAXANTHINE], the IC50 – broadly, the concentration at which inhibition is half-maximal – at Beta-secretase 1 was 0.3 µM; in assay [1] it was 0.7 µM.

For `CC[C@@H](CN1CCCC1=O)C(=O)NCCCCCCCNc1c2c(nc3cc(Cl)ccc13)C[C@H]1C=C(C)C[C@@H]2C1`, the inhibition – broadly, the change of the read-out against control, counted positive when it falls – in assay [2] worked out at 36%; in [4] it was 54%. Moreover, the IC50 came out at 0.232 µM on Cholinesterase [3] and 0.0042 µM on Acetylcholinesterase.

For `Cc1ccc2c(c1)c1c(n2CCc2ccc(C)nc2)CCN(C)C1` [LATREPIRDINE], in the assay on Mus musculus, the EC50 worked out at 42 mg/kg. The IC50 in assay [5] turned out to be 57 µM; on Cholinesterase [6] it was 7900 µM.

With `C#CCN[C@@H]1CCc2ccc(OC(=O)N(C)CC)cc21` [LADOSTIGIL], the IC50 in the assay with SK-N-SH turned out to be 1050 µM.

Take `CCN1CCc2c(c3ccccc3n2CCC(=O)N2c3ccccc3Sc3ccccc32)C1`: inhibition against Cholinesterase [7] was half-maximal at 0.52 µM (IC50).

With `Cc1ccc2[nH]c3c(c2c1)CN(CCCCCCN1CCc2[nH]c4ccc(C)cc4c2C1)CC3`, the results for the IC50 (in assay [8]; against Acetylcholinesterase) were 11 µM and 0.195 µM, respectively.
